Laboratory results taken from US20250290045A1, “SMALL MOLECULES AND METHODS FOR MODULATING TEMPORAL CONTROL OF GELATION AND HYDROGEL MECHANICS” (The Board of Trustees of the Leland Stanford Junior …, priority 2022, published 2025).
Where “and” joins values, the source holds several entries; their conditions need not be identical. Identical values can stand only once. Entries after “also recorded” stand apart in the source; their conditions may differ.

How the values were obtained:
[1] = Hydrazone reaction rates of competitors with model reactants, UV spectroscopy; type: physicochemical; conditions: for k1 (forward reaction rate) / k−1 (×10^−4) (reverse reaction rate): 50 μM competitor and 50 μM model reactant (BZA or HydAA), saline solution, 25° C., mean (standard deviation), n = 4; for k1 / k−1: unit not given
Procedure: To quantify the extent that side groups impact reaction parameters, the forward (k1) and reverse (k−1) reaction rates were measured for each competitor at 50 μM (Table 2). For these reactions, the complementary reactant was chosen to be 50 μM of either benzaldehyde (BZA) or hydrazinoacetic acid (HydAA), because they are the crosslinking functionalities of HELP, and can provide key insight into DCC interactions without the complexity of the full HA and ELP polymers. (Winne, Leibler et al. 2019) The formation of a hydrazone bond was observed via absorbance with UV spectroscopy and converted to a concentration over time. An analytical solution to a second order reaction rate, assuming equal concentrations of reactants, was fit to the concentration as a function of time. (Dirksen, Dirksen et al. 2006, Mckinnon, Domaille et al. 2014)

[2] = Theoretical half-time to equilibrium of the competitor reaction; conditions: 10 mM; calculated from kinetic reaction parameters
Procedure: Using the kinetic reaction parameters, the theoretical half-time (t1/2) to was calculated to reach equilibrium of the competitor reaction at a concentration of 10 mM (FIG. 12C). […] This is consistent with the rationale that Butanal increases the gelation time because it is capable of rapidly reacting with the crosslinking sites, preventing them from participating in gelation. […] Using a simplified half-time model of just the competitor reaction, the user is able to qualitatively capture the measured gelation times of the complex competitor and crosslinking hydrogel system.

[3] = Gelation time of HELP hydrogel with competitor; type: physicochemical; conditions: for gelation time: 0 mM 42.3±5.5 s; for effect on gelation time of HELP hydrogel: FIG. 12A, B, n=3-4, one-way ANOVA
Procedure: The HELP hydrogel composition was 2 wt % ELP-Hydrazine (fully modified) and 1 wt % HA-Benzaldehyde (30% modified).
Based upon the observed and predicted effect of the competitor on hydrogel modulus, it was reasoned that transient disruption of crosslinking would alter gelation kinetics. The competitor kinetics delays the time to reach a percolated polymer network in a dose-dependent manner. Addition of a high concentration (20 mM) of a relatively slow reacting competitor Keq competitor (HydAA, k1˜10^−1, Keq˜ 10^3) results in a modest and nonsignificant increase in gelation time (tg=48.3±3.1 s), though it softened the hydrogel modulus from ˜3 kPa to 1.3 kPa. (FIG. 12A). […] The difference in gelation times can be attributed to the difference in forward reaction rate and equilibrium constants of the competitors, which both differ by over 2 orders of magnitude between Butanal and HydAA.

[4] = Storage modulus of HELP hydrogel with competitor, oscillatory shear rheology; type: physicochemical; conditions: for HELP modulus: 0 mM control ~3 kPa; for storage modulus (G) of HELP hydrogel, dose response: FIG. 11C, D, increasing competitor concentration, n=3; for fold change in modulus: HELP system, relative to no competitor
Procedure: The term “storage modulus” as used herein may be used interchangeably with the term “stiffness”. Storage modulus refers to the ratio of the elastic stress to strain and indicates a material's ability to store energy. The storage modulus may be measured using oscillatory shear rheology
The storage modulus of the HELP hydrogels were measured using oscillatory shear rheology.
The HELP hydrogel composition was 1 wt % ELP-Hydrazine (fully modified) and 1 wt % HA-Aldehyde (12% modified). Hydrazinoacetic acid was added to HELP hydrogels in four separate final concentrations, 0 mM, 5 mM, 10 mM and 20 mM and the storage modulus was measured over the course of 30 minutes.
The catalyst agent was 2-(Aminomethyl)benzimidazole and the competitor agent was butyraldehyde. The competitor agent was added at HELP hydrogels at a final concentration of 10 mM and the catalyst agent was added to a final concentration of 0.10 and 25 mM. The composition of the HELP hydrogel was 2 wt % ELP-Hydrazine (fully modified) and 1 wt % HA-Benzaldehyde (30% modified).
To initially assess the impact of a competitor on hydrogel stiffness, it was proposed that the effect on crosslinking density will depend upon the relative strength of the two competing reactions: (1) crosslinking-site and competitor and (2) crosslinking reaction (FIG. 11A). It was predict that as the relative strength of the competitor reaction (Keq^1) to crosslinking reaction (Keq^2) increases, there will be a greater disruption of crosslinks. To validate this, the impact of competitor Keq on the modulus of HELP formed from precursor solutions of HA-BZA and ELP-HYD at a 1:1 BZA to HYD ratio was determined. To minimize off-target reactions, competitors were added to the precursors solution that has the same functionality, i.e., hydrazine competitors added to ELP-HYD, aldehyde competitors added to HA-BZA. At 10 mM of competitor, which represents a ratio of 4:3 of competitor to crosslinking sites, all competitors led to a significant decrease in the HELP modulus compared to the 0 mM control (FIG. 11B). Based upon the hypothesis that the relative strength of the reactions will dictate crosslinking disruption, a larger decrease in modulus with competitors that result in an aromatic hydrazone (Keq^1/Keq^2˜10^0), double aromatic hydrazone (Keq^1/Keq^2˜10^1) and alkyl hydrazone (Keq^1/Keq^2˜10^2) should be seen.
The hydrogel modulus response to increasing concentrations of competitors was next examined. The decrease in modulus is dependent upon the concentration of the competitor. To examine this dose-dependent response, the competitors with the lowest (HydAA, aromatic hydrazone) and highest (Butanal, alkyl hydrazone) Keq were selected. Increasing the concentration of HydAA from 5, 10, and 20 mM further reduced the crosslinking density and modulus (2.3, 1.8, 1.3 kPa) in a concentration dependent manner (FIG. 11C). A similar response with Butanal was seen as we increase the concentration from 5 to 10 mM (FIG. 11D).

[5] = HELP hydrogel homogeneity by fluorescent dye distribution; type: physicochemical; conditions: 10 mM competitor vs rapidly gelling HELP without competitor; stiff (~3.5 kPa) HELP
Procedure: We propose that by using a competitor to increase gelation times, we can overcome the limitations of rapidly gelling hydrazone-crosslinked HELP. We compared the macroscopic structure of a stiff (˜3.5 kPa) HELP formulation with and without Butanal. Without a competitor, the hydrogel rapidly gelled, resulting in a heterogenous hydrogel with nonuniform distribution of polymer. However, addition of 10 mM Butanal allowed for adequate mixing of the polymers and a homogenous hydrogel (FIG. 12E). To quantitatively evaluate the heterogeneity of HELP hydrogels with or without a competitor, we added a fluorescent dye and compared the spatial distribution of the fluorescent signal. […] By using a rapidly reaction competitor to slow down gelation kinetics, we have developed a solution to the challenge of inhomogeneous DCC hydrogels, and produced a uniform HELP hydrogel.

[6] = 10 mM competitor, HA-BZA and ELP-HYD at 1:1 BZA to HYD

SMILES | k1 (forward reaction rate) [1] | k−1 (×10^−4) (reverse reaction rate) [1] | k1 [1] | k−1 [1] | theoretical half-time (t1/2) to reach equilibrium of the competitor reaction [2] [min] | gelation time ([3]; 10 mM competitor) | effect on gelation time of HELP hydrogel [3] | HELP modulus ([4]; 5 mM competitor) [kPa] | storage modulus (G) of HELP hydrogel, dose response [4] | fold change in modulus [4] [fold] | HELP modulus [4, 6] [kPa] | other results
NNCC(=O)O [Hydrazinoacetic acid, hydrazinoacetic acid] | 0.276 (0.070) M^−1 s^−1 | 1.71 (0.280) ×10^−4 s^−1 | ~10^−1 | ~10^−4 | 4.23 ± 1.33 | did not significantly impact gelation | does not significantly increase | 2.3 | dose-dependent decrease | 0.6 |  | gelation time (tg) ([3]; 20 mM HydAA (slow-reacting competitor)): 48.3 ± 3.1 s; gelation time, dose response ([3]; FIG. 4, 0, 5, 10 mM, 2 wt % ELP-Hydrazine, 1 wt % HA-Benzaldehyde (30% modified)): increased the gelation time in a dose dependent manner; increase of gelation time ([3]; FIG. 4, 10 mM, 2 wt % ELP-Hydrazine, 1 wt % HA-Benzaldehyde (30% modified)): approximately 30 seconds; HELP modulus ([4]; 10 mM competitor, HA-BZA and ELP-HYD at 1:1 BZA to HYD, listed as HydAA): 1.75±0.3 kPa and 1.8 kPa and 1.75 kPa; HELP modulus ([4]; 20 mM competitor): 1.3 kPa; storage modulus of HELP hydrogels, dose response ([4]; FIG. 2, 0, 5, 10 and 20 mM): reduced the storage modulus in a dose dependent manner; time to reach the plateau storage modulus ([4]; FIG. 3, 1 wt % ELP-Hydrazine, 1 wt % HA-Aldehyde (12% modified), 0, 5, 10, 20 mM): increased the time to reach the plateau storage modulus; storage modulus of HELP hydrogels over time ([4]; FIG. 3, 1 wt % ELP-Hydrazine, 1 wt % HA-Aldehyde (12% modified), 0, 5, 10, 20 mM, 30 minutes): reduced the storage modulus of HELP hydrogels in a dose dependent manner
NCc1nc2ccccc2[nH]1 [2-(Aminomethyl)benzimidazole] |  |  |  |  |  |  |  |  |  |  |  | storage modulus of HELP hydrogels with catalyst and competitor ([4]; FIG. 9, catalyst 0.10 and 25 mM with 10 mM butyraldehyde, 24 hours diffusion into preformed hydrogel, 2 wt % ELP-Hydrazine, 1 wt % HA-Benzaldehyde (30% modified)): reduced in a dose-dependent manner
CCCC=O [Butyraldehyde, butyraldehyde] | 59.9 (5.49) M^−1 s^−1 | 4.49 (1.07) ×10^−4 s^−1 |  | 4.49±1.07×10^−4 | 0.0265 ± 0.00233 | 92.3 ± 5.1 s | significantly increases gelation time in a dose-dependent manner | 1.75 | dose-dependent decrease | 0.1 | 0.29±0.2 | k1 ([1]; listed as Butanal): 59.9±5.49; k1 ([1]; listed as Butunal): ~10^1; increase of gelation time ([3]; 5 mM competitor): ~1.7 fold; gelation time ([3]; 5 mM competitor): 74.8 ± 10.0 s; variance of fluorescence intensity (hydrogel heterogeneity) [5]: significantly lower variance; HELP hydrogel formation ([4]; 20 mM competitor (2.7× crosslinking sites), listed as Butanal): disrupt formation of a hydrogel; also recorded: inhibition of HELP gel formation
NNc1ccc(C(=O)O)cc1 [Hydrazinobenzoic acid, 4-hydrazinobenzoic acid] | 2.10 (0.40) M^−1 s^−1 | 1.00 (0.077) ×10^−4 s^−1 | 2.10±0.400 | 1.00±0.077×10^−4 |  |  |  |  |  |  | 0.86±0.04 | 
NNCCO [Hydrazinoethanol, 2-hydrazinoethanol] | 0.690 (0.301) M^−1 s^−1 | 1.12 (0.469) ×10^−4 s^−1 | ~10^−1 | ~10^−4 |  |  |  |  |  |  |  | 
O=Cc1ccccc1 [Benzaldehyde, benzaldehyde] | 0.276 (0.070) M^−1 s^−1 | 1.71 (0.280) ×10^−4 s^−1 |  |  | 4.23 ± 1.33 |  |  |  |  |  |  | 
